Consider five compounds from US9000179B2, “Inhibitors of proliferation and activation of signal transducer and activator of transcription (STATs)” (Board of Regents, The University of Texas System, priority 2008, dated 2015).

Common to all, as to type: cell-based
Assay [1] has as its system Colo357FG pancreatic cancer cell line. Nature of the assay: Antiproliferative activity, MTT cell viability. The conditions noted are these: COLO 357/FG. How it is done: The antiproliferative activity of the Compound of Example 1 and Example 7 have been shown in a Colo357FG pancreatic cancer cell line as follows:
(§1) A variety of cell types were seeded at a density of 50,000 cells/100 μl per well onto 96-well plates and cultured for 24-48 h in DMEM medium until they reached confluency. At confluency, 25 μl of fresh media containing WP1220 at various concentrations (0 to 100 μM) was added to the wells and incubated for 72 h at 37° C. The complex was removed, 100 μl of fresh medium was added and the cells were incubated overnight. Medium was removed and fresh medium (100 μl) was added to each well along with (20 μl) MTT solution (5 mg/ml in PBS) before incubating the cells for a further 4 h at 37° C. The reaction product was solubilised with sodium dodecyl sulfate (100 μl, 10%, w/v) in 0.01 N HCl overnight before quantifying the product using a microplate reader at 590 nm and comparing with control cells. The experiment was carried out in triplicate (n=3).

A further assay concerns STAT3. Nature of the assay: Western blot, inhibition of STAT3 phosphorylation in Colo357FG tumor cell line. The conditions noted are these: FIG. 1. As for the experimental part: (§2) Using phospho-tyrosine STAT3 (Y705), phospho-tyrosine Jak2 (Y1007/1008), total STAT3, total Jak2, Bcl-xL, actin (Cell Signaling Technology, Danvers, Mass.), and survivin (R&D Systems, Minneapolis, Minn.) antibodies, western blots were performed using the following methods. Briefly, (1) Samples were prepared from cells that were homogenized in a buffer protecting the protein of interest from degradation; (2) The sample was then separated using SDS-PAGE (10-15 μg protein/well) and then transferred to a membrane for detection; and (3) The membrane was incubated with a generic protein (milk proteins) to bind to any remaining sites on the membrane. A primary antibody was then added to the solution which is able to bind to its specific protein; (4) A secondary antibody-enzyme conjugate, which recognizes the primary antibody was then added to find locations where the primary antibody has bound.

The next assay relates to U87 brain tumor. The assay is described as follows: Cell survival of U87 brain tumor (MTT). The conditions noted are these: U87, FIG. 2. How it is done: as §1
Assay [2] concerns SCOVE3 ovarian cancer cell. Nature of the assay: SCOVE3 ovarian cancer cell growth (MTT). The conditions noted are these: SCOVE3, FIG. 3. As for the experimental part:
as §1

For a further assay, the system named is STAT-3. Nature of the assay: Western blot, STAT-3 phosphorylation in D54 brain tumor cell lines. The conditions noted are these: FIG. 4. How it is done:
as §2

The IC50 is the point on the concentration scale where inhibition reaches its midpoint. Read a high IC50 as weaker potency. Consider `C[C@H](NC(=O)/C(C#N)=C/C=C/c1cccc(Br)n1)c1ccccc1` [Example 1, (2E,4E)-5-(6-bromopyridin-2-yl)-2-cyano-N-[(1S)-1-phenylethyl]penta-2,4-dienamide], for which, in assay [1], it took 3.2 µM to reach half-maximal inhibition (IC50). In addition, the “inhibition of STAT3 phosphorylation” value in the assay with STAT3 is on record as “inhibition of STAT3 phosphorylation”.
Consider `C[C@H](NC(=O)/C(C#N)=C/C=C/c1cccc(Cl)n1)c1ccccc1` [Example 2, (2E,4E)-5-(6-chloropyridin-2-yl)-2-cyano-N-[(1S)-1-phenylethyl]penta-2,4-dienamide], for which, in the assay with U87 brain tumor, the “cell survival of the U87 brain tumor” value is “lack of cell survival”. The “inhibition of SCOVE3 ovarian cancer cell growth” value in assay [2] is “inhibition of the SCOVE3 ovarian cancer cell growth”.
In the case of `N#C/C(=C\C=C\c1cccc(Br)n1)C(=O)NCc1ccccc1` [Example 4, (2E,4E)-N-benzyl-5-(6-bromopyridin-2-yl)-2-cyanopenta-2,4-dienamide], the “cell survival of the U87 brain tumor” value with U87 brain tumor is listed as “lack of cell survival”. The “inhibition of SCOVE3 ovarian cancer cell growth” value in assay [2] is “inhibition of the SCOVE3 ovarian cancer cell growth”.
Consider `N#C/C(=C\C=C\c1cccc(Br)n1)C(=O)N[C@H](c1ccccc1)C1CC1` [Example 7, (2E,4E)-5-(6-bromopyridin-2-yl)-2-cyano-N-[(S)-cyclopropyl(phenyl)methyl]penta-2,4-dienamide], for which 5.4 µM corresponded to half-maximal inhibition in assay [1] (IC50).
Take `CCC[C@H](NC(=O)/C(C#N)=C/C=C/c1cccc(Br)n1)c1ccccc1` [Example 9, (2E,4E)-5-(6-bromopyridin-2-yl)-2-cyano-N-[(1S)-1-phenylbutyl]penta-2,4-dienamide]: in the assay with STAT-3, the “inhibition of IL-2 phosphorylation of STAT-3” value is given as “constitutively inhibiting the IL-2 phosphorylation of STAT-3”.
